In the NIST ThermoML archive (doi:10.1016/j.jct.2015.02.009):

Columns and labels:
[1] = molar heat capacity at saturation pressure; conditions: Vacuum adiabatic calorimetry
[2] = Molar enthalpy of transition or fusion; conditions: Crystal 1; Adiabatic calorimetry

O=c1c2ccccc2oc2ccccc12 [9H-xanthen-9-one]
[1]
Conditions | molar heat capacity [J/K/mol]
156.73 K, Crystal 2 | 117.13
160 K, Crystal 2 | 119.31
166.81 K, Crystal 2 | 123.9
176.93 K, Crystal 2 | 130.77
180 K, Crystal 2 | 132.89
187.03 K, Crystal 2 | 137.78
197.16 K, Crystal 2 | 144.95
200 K, Crystal 2 | 146.97
207.33 K, Crystal 2 | 152.23
217.49 K, Crystal 2 | 159.6
220 K, Crystal 2 | 161.45
227.64 K, Crystal 2 | 167.1
237.79 K, Crystal 2 | 174.59
240 K, Crystal 2 | 176.23
247 K, Crystal 2 | 181.5
257.21 K, Crystal 2 | 189.32
260 K, Crystal 2 | 191.47
267.43 K, Crystal 2 | 197.24
271.49 K, Crystal 2 | 200.45
277.66 K, Crystal 2 | 205.34
280 K, Crystal 2 | 207.28
281.58 K, Crystal 2 | 208.68
285.78 K, Crystal 2 | 211.94
287.89 K, Crystal 2 | 213.62
287.93 K, Crystal 2 | 213.81
290.92 K, Crystal 2 | 216.28
293.89 K, Crystal 2 | 218.7
296.84 K, Crystal 2 | 221.36
298.15 K, Crystal 2 | 222.59
299.77 K, Crystal 2 | 224.22
300 K, Crystal 2 | 224.32
302.68 K, Crystal 2 | 226.91
304.5 K, Crystal 1 | 217.42
304.5 K, Crystal 2 | 228.82
308.54 K, Crystal 1 | 220.52
314.52 K, Crystal 1 | 224.74
319.05 K, Crystal 1 | 228.22
320 K, Crystal 1 | 228.78
329.4 K, Crystal 1 | 234.88
339.75 K, Crystal 1 | 241.96
340 K, Crystal 1 | 242.13
350.05 K, Crystal 1 | 248.91
360 K, Crystal 1 | 255.59
360.25 K, Crystal 1 | 255.74
370.5 K, Crystal 1 | 262.7
380 K, Crystal 1 | 269.01
380.94 K, Crystal 1 | 269.61
391.39 K, Crystal 1 | 276.39
400 K, Crystal 1 | 281.96
401.81 K, Crystal 1 | 283.12
403.54 K, Crystal 1 | 284.25
411.03 K, Crystal 1 | 289
412.19 K, Crystal 1 | 289.73
416.69 K, Crystal 1 | 292.58
419.61 K, Crystal 1 | 294.44
420 K, Crystal 1 | 294.67
422.49 K, Crystal 1 | 296.32
426.25 K, Crystal 1 | 298.77
426.89 K, Crystal 1 | 299.05
428.37 K, Crystal 1 | 300.06
432.6 K, Crystal 1 | 302.78
434.54 K, Crystal 1 | 304.24
436.39 K, Crystal 1 | 305.61
436.87 K, Crystal 1 | 305.89
437 K, Crystal 1 | 305.66
438.34 K, Crystal 1 | 306.66
440 K, Crystal 1 | 307.81
441.53 K, Crystal 1 | 308.59
444.48 K, Crystal 1 | 310.76
448.8 K, Crystal 1 | 313.35
448.8 K, Liquid | 352.72
456.71 K, Liquid | 355.95
456.82 K, Liquid | 356.07
456.9 K, Liquid | 356.08
460 K, Liquid | 357.33
465.07 K, Liquid | 359.58
465.9 K, Liquid | 359.81
476.6 K, Liquid | 364.34
480 K, Liquid | 365.74
488.56 K, Liquid | 369.25
497.53 K, Liquid | 372.95
500 K, Liquid | 374.07
500.95 K, Liquid | 374.47
512.38 K, Liquid | 379.19
520 K, Liquid | 382.26
521.08 K, Liquid | 382.68

Conditions | Molar enthalpy of transition or fusion [kcal/mol]
[2] | 6.567
